Laboratory results reported in ChEMBL document CHEMBL5233262, “Anti-inflammatory activity of naturally occuring diarylheptanoids - A review” (Bioorg Med Chem, 2021).
≈ marks a conversion by molar mass, not a printed value. Blank lines part the entries; values can stand above or below the molecule they belong to.

Tests used:
RAW264.7 [1] = test: Antiinflammatory activity in mouse RAW264.7 cells assessed as inhibition of LPS-induced TNFalpha production; assay type: functional, cell-based
RAW264.7 [2] = test: Antiinflammatory activity in mouse RAW264.7 cells assessed as inhibition of LPS-induced NO production; assay type: functional, cell-based
Hep 3B2 [3] = test: Antiinflammatory activity in human Hep3B cells assessed as inhibition of IL-6 stimulated ICAM-1 mRNA expression at 30 uM preincubated for 60 mins followed by IL-6 stimulation and measured after 20 mins by RT-PCR analysis; assay type: functional; conditions: 1.333 h, time 80 min
Hep 3B2 [4] = test: Antiinflammatory activity in human Hep3B cells assessed as inhibition of IL-6 stimulated IL-1beta mRNA expression at 30 uM preincubated for 60 mins followed by IL-6 stimulation and measured after 20 mins by RT-PCR analysis; assay type: functional; conditions: 1.333 h, time 80 min
Hep 3B2 [5] = test: Antiinflammatory activity in human Hep3B cells assessed as inhibition of IL-6 stimulated CRP mRNA expression at 30 uM preincubated for 60 mins followed by IL-6 stimulation and measured after 20 mins by RT-PCR analysis; assay type: functional; conditions: 1.333 h, time 80 min
Hep 3B2 [6] = test: Antiinflammatory activity in human Hep3B cells assessed as inhibition of IL-6 stimulated SOCS3 mRNA expression at 30 uM preincubated for 60 mins followed by IL-6 stimulation and measured after 20 mins by RT-PCR analysis; assay type: functional; conditions: 1.333 h, time 80 min
RAW264.7 [7] = test: Antiinflammatory activity in mouse RAW264.7 cells assessed as inhibition of LPS-induced NO production at 3 to 100 uM preincubated for 2 hrs followed by LPS stimulation and measured after 24 hrs by Griess method; assay type: functional; conditions: dose 3-100 µM, time 26 hrs
RAW264.7 [8] = test: Antiinflammatory activity in mouse RAW264.7 cells assessed as inhibition of LPS-induced IL-6 production at 3 to 100 uM preincubated for 2 hrs followed by LPS stimulation and measured after 24 hrs by ELISA; assay type: functional; conditions: dose 3-100 µM, time 26 hrs
RAW264.7 [9] = test: Antiinflammatory activity in mouse RAW264.7 cells assessed as inhibition of LPS-induced TNFalpha production at 3 to 100 uM preincubated for 2 hrs followed by LPS stimulation and measured after 24 hrs by ELISA; assay type: functional; conditions: dose 3-100 µM, time 26 hrs
J774.1 = test: Antiinflammatory activity in mouse J774.1 cells assessed as inhibition of LPS-induced NO production at 10 microg/ml incubated for 48 hrs by Griess reagent based analysis; assay type: functional
[10] = Antiinflammatory activity in human HAP1 cells assessed as inhibition of LPS-induced p38 MAPK activation at 5 uM; assay type: functional
[11] = Antiinflammatory activity in human HAP1 cells assessed as inhibition of LPS-induced NF-kappaB activation at 5 uM; assay type: functional
[12] = Antiinflammatory activity in human HAP1 cells assessed as inhibition of LPS-induced iNOS expression at 5 uM; assay type: functional
[13] = Antiinflammatory activity in human HAP1 cells assessed as inhibition of LPS-induced ROS production at 5 uM; assay type: functional
[14] = Antiinflammatory activity in human HAP1 cells assessed as inhibition of LPS-induced NO production at 5 uM; assay type: functional
[15] = Anti-osteoclastogenic activity in human BMDC assessed in inhibition of RANKL mediated osteoclast differentiation; assay type: functional, cell-based
RAW264.7 [16] = test: Antiinflammatory activity in mouse RAW264.7 cells assessed as inhibition of LPS-induced NO production for 24 hrs by colorimetric analysis; assay type: functional, cell-based; conditions: RAW264.7, 24 h

- IC50 (RAW264.7 [1]): > 100000 nM
- IC50 (RAW264.7 [2]): 32.6 µg/mL (≈ 86.1 µM)
Compound: COc1cc([C@@H](O)[C@@H](O)[C@@H](O)C[C@H](O)CCc2ccc(O)cc2)ccc1O

Compound: COc1ccc(/C=C/C(C[C@H](O)CCc2ccc(OC)c(OC)c2)OC)cc1OC (some centres not stated)
- inhibition at 30 µM (Hep 3B2 [3]): 76%
- inhibition at 30 µM (Hep 3B2 [4]): 91%
- inhibition at 30 µM (Hep 3B2 [5]): 91%
- inhibition at 30 µM (Hep 3B2 [6]): 91%

Compound: COc1cc2ccc1Oc1cc(ccc1O)CC[C@H](O[C@@H]1O[C@H](CO)[C@@H](O)[C@H](O)[C@H]1O)CC(=O)CC2
- inhibition (INH) (RAW264.7 [7]): 32.7%
- inhibition (INH) (RAW264.7 [8]): 29.2%
- inhibition (INH) (RAW264.7 [9]): 44.1%

Compound: COc1cc(O)c([C@H]2C[C@H](CCc3ccc(O)cc3)O[C@@H](c3ccc(O)cc3)[C@H]2O)c(O)c1C(=O)/C=C/c1ccc(O)cc1
- inhibition at 10 µg/mL (J774.1): 37.6%

- IC50 (RAW264.7 [16]): 420 nM
Compound: Oc1ccc(CC[C@@H](O)CC/C=C/c2ccccc2)cc1O
- inhibition at 5 µM [10]: 44%
- inhibition at 5 µM [11]: 52%
- inhibition at 5 µM [12]: 85%
- inhibition at 5 µM [13]: 90%
- inhibition at 5 µM [14]: 91%
- IC50 [15]: 325 nM
